Results reported in ChEMBL document CHEMBL1138416, “Synthesis and SAR of potent and selective androgen receptor antagonists: 5,6-Dichloro-benzimidazole derivatives” (Bioorg Med Chem Lett, 2007).
The source made the active and inactive calls. The rule behind the calls is not given here.

Columns and labels:
Rattus norvegicus [1] = organism: Rattus norvegicus; test: Inhibition of prostate weight in testosterone treated castrated immature Sprague-Dawley rat at 2 mg/day; type: functional, Prostate gland; settings: for inhibition: Prostate gland
[2] = Half life in orally dosed Sprague-Dawley rat; type: ADME, organism-based; settings: in vivo, po
[3] = molecular target: T1, Androgen receptor (Homo sapiens) (UniProt P10275); test: Antagonist activity at androgen receptor expressed in COS cell at 3000 nM by whole cell assay; type: functional, cell-based
T1 sequence (whole entry): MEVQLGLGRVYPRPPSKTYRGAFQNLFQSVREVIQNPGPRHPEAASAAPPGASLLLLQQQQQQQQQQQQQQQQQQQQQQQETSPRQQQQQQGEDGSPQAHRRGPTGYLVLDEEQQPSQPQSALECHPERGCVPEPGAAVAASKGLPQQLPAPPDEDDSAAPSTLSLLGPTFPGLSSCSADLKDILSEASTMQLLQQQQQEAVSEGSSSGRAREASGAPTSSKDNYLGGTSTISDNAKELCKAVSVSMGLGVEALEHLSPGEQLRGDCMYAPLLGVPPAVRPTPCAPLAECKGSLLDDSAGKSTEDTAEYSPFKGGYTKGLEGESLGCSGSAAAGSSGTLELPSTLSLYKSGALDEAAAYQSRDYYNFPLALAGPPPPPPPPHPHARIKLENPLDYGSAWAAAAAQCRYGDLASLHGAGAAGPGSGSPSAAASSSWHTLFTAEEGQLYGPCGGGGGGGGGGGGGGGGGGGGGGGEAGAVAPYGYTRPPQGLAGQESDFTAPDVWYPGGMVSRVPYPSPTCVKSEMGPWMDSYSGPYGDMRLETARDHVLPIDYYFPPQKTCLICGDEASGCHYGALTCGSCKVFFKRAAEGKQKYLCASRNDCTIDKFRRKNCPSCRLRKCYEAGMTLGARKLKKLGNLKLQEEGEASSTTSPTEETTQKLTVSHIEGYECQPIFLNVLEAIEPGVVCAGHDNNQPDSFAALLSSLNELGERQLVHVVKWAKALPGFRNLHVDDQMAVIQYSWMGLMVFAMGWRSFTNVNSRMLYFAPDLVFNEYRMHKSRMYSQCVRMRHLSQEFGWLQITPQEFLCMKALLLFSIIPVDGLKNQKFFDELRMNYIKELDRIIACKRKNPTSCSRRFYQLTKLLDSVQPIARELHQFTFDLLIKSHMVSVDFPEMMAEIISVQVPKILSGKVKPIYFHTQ

[4] = Bioavailability in orally dosed Sprague-Dawley rat; type: ADME, organism-based; settings: in vivo, po
Rattus norvegicus [5] = organism: Rattus norvegicus; test: Inhibition of prostate weight in testosterone treated castrated immature Sprague-Dawley rat; type: functional, Prostate gland
Rattus norvegicus [6] = organism: Rattus norvegicus; test: Inhibition of prostate weight in testosterone treated castrated mature Sprague-Dawley rat; type: functional; settings: Prostate gland, read-out: ID50 (the source's name)
Rattus norvegicus [7] = organism: Rattus norvegicus; test: Inhibition of prostate weight in testosterone treated castrated immature Sprague-Dawley rat at 0.3 mg/day
[8] = molecular target: T1, Androgen receptor (Homo sapiens); test: Antagonist activity at androgen receptor expressed in COS cell by whole cell assay; type: functional, cell-based

SMILES	Inhibition (Rattus norvegicus [1])	also measured
CC(C)CSCC(C)(O)c1nc2cc(Cl)c(Cl)cc2n1C (stereo not drawn)	9%	–
CCCn1c(C(C)(C)O)nc2cc(Cl)c(Cl)cc21	53%	–
CCC(C)c1nc2cc(Cl)c(Cl)cc2n1C (stereo not drawn)	–	inhibition (Rattus norvegicus [1]): inactive
CCn1c(C(C)(O)CS(=O)(=O)CC)nc2cc(Cl)c(Cl)cc21 (stereo not drawn)	74%	half-life [2]: 15 h; inhibition [3]: 20%; bioavailability [4]: 99%
Cn1c(C(C)(O)CSc2ccc(F)cc2)nc2cc(Cl)c(Cl)cc21 (stereo not drawn)	6%	–
CC(O)(CS(=O)(=O)c1ccc(F)cc1)C(=O)Nc1ccc(C#N)c(C(F)(F)F)c1 (stereo not drawn) [BICALUTAMIDE]	70%	ID50 (Rattus norvegicus [5]): 0.23 mg/day; ED50 (Rattus norvegicus [6]): 30 mg/kg
CC(C)(O)c1nc2cc(C#N)c(C(F)(F)F)cc2[nH]1	63%	–
CC(C)c1nc2cc(Cl)c(Cl)cc2n1C	93%	–
CC(C)c1nc2cc(Cl)c(Cl)cc2[nH]1	11%	–
CCC(CC)c1nc2cc(Cl)c(Cl)cc2[nH]1	80%	–
Cc1ccc(S(=O)(=O)CC(C)(O)c2nc3cc(Cl)c(Cl)cc3[nH]2)cc1 (stereo not drawn)	11%	–
COC(c1nc2cc(Cl)c(Cl)cc2n1C)C(F)(F)F (stereo not drawn)	60%	–
CCC(CC)c1nc2cc(Cl)c(Cl)cc2n1CC	3%	–
CC(O)c1nc2cc(Cl)c(Cl)cc2[nH]1 (stereo not drawn)	–	inhibition (Rattus norvegicus [1]): inactive
CCSCC(C)(O)c1nc2cc(Cl)c(Cl)cc2n1CC (stereo not drawn)	79%	half-life [2]: 1 h; bioavailability [4]: 15%
Cn1c(C(C)(C)O)nc2cc(Cl)c(Cl)cc21	91%	half-life [2]: 3 h; bioavailability [4]: 100%
CCn1c(C(C)(C)O)nc2cc(Cl)c(Cl)cc21	82%	–
CCSCC(C)(O)c1nc2cc(Cl)c(Cl)cc2n1C (stereo not drawn)	86%	–
CC(O)(c1nc2cc(Cl)c(Cl)cc2[nH]1)c1ccco1 (stereo not drawn)	20%	–
OC(c1nc2cc(Cl)c(Cl)cc2[nH]1)C(F)(F)F (stereo in doubt; (+)-1)	–	ID50 (Rattus norvegicus [5]): 0.032 mg/day; Inhibition (Rattus norvegicus [7]): 81%
CC(O)(c1nc2cc(Cl)c(Cl)cc2[nH]1)c1cccs1 (stereo not drawn)	16%	–
CC(C)(O)c1nc2cc(F)c(Cl)cc2[nH]1	57%	–
CC(C)CS(=O)(=O)CC(C)(O)c1nc2cc(Cl)c(Cl)cc2n1C (stereo not drawn)	7%	–
CC(C)(O)c1nc2cc(Cl)c(Cl)cc2n1CC#N	5%	–
CC(O)(CO)c1nc2cc(Cl)c(Cl)cc2[nH]1 (stereo not drawn)	67%	–
Cn1c(C(C)(O)CSCc2ccccc2)nc2cc(Cl)c(Cl)cc21 (stereo not drawn)	63%	–
CCCC(C)c1nc2cc(Cl)c(Cl)cc2[nH]1 (stereo not drawn)	32%	–

SMILES	Inhibition (Rattus norvegicus [1])	also measured
CSCn1c(C(C)(C)O)nc2cc(Cl)c(Cl)cc21	96%	–
CCC(CC)c1nc2cc(Cl)c(Cl)cc2n1C	77%	–
OC(c1nc2cc(Cl)c(Cl)cc2[nH]1)C(F)(F)F (stereo in doubt; (-)-1)	–	ID50 (Rattus norvegicus [5]): 0.12 mg/day; Inhibition (Rattus norvegicus [7]): 80%
CCCSCC(C)(O)c1nc2cc(Cl)c(Cl)cc2n1C (stereo not drawn)	40%	–
Cn1c(C(C)(O)CS(=O)(=O)CC(F)(F)F)nc2cc(Cl)c(Cl)cc21 (stereo not drawn)	38%	–
OC(c1nc2cc(Cl)c(Cl)cc2[nH]1)C(F)(F)F (stereo in doubt; 1)	96%	half-life [2]: 14.7 h; ID50 (Rattus norvegicus [5]): 0.15 mg/day; bioavailability [4]: 132%; ED50 (Rattus norvegicus [6]): 30 mg/kg
CCn1c(C(C)C)nc2cc(Cl)c(Cl)cc21	82%	–
FC(F)(F)Cc1nc2cc(Cl)c(Cl)cc2[nH]1	90%	half-life [2]: 5.3 h; inhibition [3]: 30%; ID50 (Rattus norvegicus [5]): 0.097 mg/day; ED50 (Rattus norvegicus [6]): 18 mg/kg
Cn1c(C(C)(O)CSCC(F)(F)F)nc2cc(Cl)c(Cl)cc21 (stereo not drawn)	6%	–
CC(O)(CS(=O)(=O)c1ccc(F)cc1)c1nc2cc(Cl)c(Cl)cc2[nH]1 (stereo not drawn)	29%	–
Cn1c(CC(F)(F)F)nc2cc(Cl)c(Cl)cc21	60%	–
CCC(C)c1nc2cc(Cl)c(Cl)cc2[nH]1 (stereo not drawn)	88%	–
CCCS(=O)(=O)CC(C)(O)c1nc2cc(Cl)c(Cl)cc2n1C (stereo not drawn)	26%	–
CCOCC(C)(O)c1nc2cc(Cl)c(Cl)cc2n1C (stereo not drawn)	10%	–
CC(O)(CS(C)(=O)=O)c1nc2cc(Cl)c(Cl)cc2[nH]1 (stereo not drawn)	–	inhibition (Rattus norvegicus [1]): inactive
CCCC(C)c1nc2cc(Cl)c(Cl)cc2n1C (stereo not drawn)	23%	–
CCS(=O)(=O)CC(C)(O)c1nc2cc(Cl)c(Cl)cc2n1C (stereo not drawn)	79%	–
Cn1c(C(O)(O)C(F)(F)F)nc2cc(Cl)c(Cl)cc21	94%	ID50 (Rattus norvegicus [5]): 0.17 mg/day; ED50 (Rattus norvegicus [6]): 23 mg/kg
CCCCn1c(C(C)(C)O)nc2cc(Cl)c(Cl)cc21	–	inhibition (Rattus norvegicus [1]): inactive
CCc1nc2cc(Cl)c(Cl)cc2[nH]1	–	inhibition (Rattus norvegicus [1]): inactive
Cn1c(C(C)(O)CS(=O)(=O)Cc2ccccc2)nc2cc(Cl)c(Cl)cc21 (stereo not drawn)	16%	–
COCn1c(C(C)(C)O)nc2cc(Cl)c(Cl)cc21	90%	–
CC(O)(CC#N)c1nc2cc(Cl)c(Cl)cc2[nH]1 (stereo not drawn)	64%	–
CC(C)(O)c1nc2cc(Cl)c(Cl)cc2[nH]1	77%	ID50 [8]: 0.08 µM; half-life [2]: 4 h; inhibition [3]: 90%; bioavailability [4]: 100%
CC(O)(c1nc2cc(Cl)c(Cl)cc2[nH]1)C(F)(F)F (stereo not drawn)	74%	–
CC(C)(O)c1nc2cc(Cl)c(C(F)(F)F)cc2[nH]1	42%	–
